Experimental data taken from ChEMBL document CHEMBL1201862, “PubChem BioAssay data set” (2004).
Activity calls are given as the source filed them.

Experiments:
[1] = general mammalian cell viability loss – inhibitor set, cherry-pick, set 2, cytotoxicity control for miR-122 modulator project, dose response (AID 720697); format: functional, cell-based
[2] = potency of ADAM10 substrate cleavage blockers – biochemical, QFRET, dose response (AID 743254);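 note: ADAM10 enzyme with the DM2 quenched FRET peptide as substrate; EDANS fluorescence gain as the protease cuts the substrate; inhibitor potency against ADAM10 proteolytic activity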
[3] = target: T1, Disintegrin and metalloproteinase domain-containing protein 17 (Homo sapiens, UniProt P78536); experiment: inhibition of ADAM17 substrate cleavage – biochemical, quenched FRET substrate, counter-screen for ADAM10 exosite inhibitor project, dose response (AID 743253)
T1 sequence (P78536 whole entry, the tested form may be a part): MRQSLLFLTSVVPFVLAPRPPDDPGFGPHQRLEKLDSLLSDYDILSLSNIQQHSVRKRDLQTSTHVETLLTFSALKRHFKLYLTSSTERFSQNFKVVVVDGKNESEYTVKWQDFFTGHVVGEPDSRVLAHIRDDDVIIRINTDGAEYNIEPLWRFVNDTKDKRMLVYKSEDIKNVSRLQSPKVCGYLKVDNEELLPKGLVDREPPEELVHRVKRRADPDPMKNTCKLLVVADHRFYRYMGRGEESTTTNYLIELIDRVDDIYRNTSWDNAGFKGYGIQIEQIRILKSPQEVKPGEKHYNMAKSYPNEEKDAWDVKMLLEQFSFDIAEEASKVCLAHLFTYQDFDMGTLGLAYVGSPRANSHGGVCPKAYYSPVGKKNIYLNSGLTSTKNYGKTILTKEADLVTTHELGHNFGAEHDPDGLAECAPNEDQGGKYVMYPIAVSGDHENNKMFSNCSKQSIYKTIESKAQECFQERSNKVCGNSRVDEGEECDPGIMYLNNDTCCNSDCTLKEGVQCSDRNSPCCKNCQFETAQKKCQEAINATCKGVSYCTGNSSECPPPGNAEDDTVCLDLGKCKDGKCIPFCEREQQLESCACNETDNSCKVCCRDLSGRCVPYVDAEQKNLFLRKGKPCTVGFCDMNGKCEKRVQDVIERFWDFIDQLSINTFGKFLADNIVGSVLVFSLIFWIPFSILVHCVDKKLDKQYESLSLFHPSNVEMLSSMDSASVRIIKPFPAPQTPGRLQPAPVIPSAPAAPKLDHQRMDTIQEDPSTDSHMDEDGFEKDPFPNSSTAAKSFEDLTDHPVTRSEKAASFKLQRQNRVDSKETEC

Prothrombin = Prothrombin (Homo sapiens, UniProt P00734); experiment: Thrombin 1536 HTS Dose Response Confirmation. [Related pubchem assays: 1046 (Thrombin 1536 HTS; hits were confirmed in this assay)]; format: functional
[4] = Trypanosoma cruzi growth suppression in host cells – NIH3T3 host cells, beta-gal luminescence, confirmation (AID 2044); format: functional, cell-based;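 note: intracellular parasites grown in NIH/3T3 mouse fibroblasts as host cells; luminescent beta-galactosidase reporter signal from transgenic T. cruzi replicating inside host cells; inhibitors lower the luminescence signal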
[5] = NIH3T3 cell viability loss – ATP luminescence, mouse fibroblasts, counter-screen, dose response (AID 2010); format: functional, cell-based;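 note: cells exposed to compound for about 90 hours before reading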
[6] = A cytotoxicity screen of small molecule inhibitors of the PhoP region in Salmonella typhi identified in the primary screen. [Related pubchem assays: 1850, 1864, 1985 ]; format: functional
[7] = target: T1, Disintegrin and metalloproteinase domain-containing protein 17; experiment: exosite inhibitors of ADAM17, dose response, biochemical (AID 743260)
[8] = inhibition of ADAM10 peptide cleavage – biochemical, FRET peptide substrate, recombinant human ADAM10, selectivity assay for ADAM17 exosite inhibitor project, dose response (AID 743259);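 note: ADAM10 enzyme cleaving a FRET peptide substrate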
Paired box protein Pax-8 = Paired box protein Pax-8 (Homo sapiens, UniProt Q06710); experiment: PAX8 transcriptional activity inhibition in RMG-I – RMG-I cells, luciferase, cherry-pick, dose response (AID 687027); format: functional, cell-based;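 note: luciferase reporter driven by Pax8 target thyroperoxidase promoter measured by SteadyGlo luminescence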
Sequence of Paired box protein Pax-8 (Q06710 whole entry): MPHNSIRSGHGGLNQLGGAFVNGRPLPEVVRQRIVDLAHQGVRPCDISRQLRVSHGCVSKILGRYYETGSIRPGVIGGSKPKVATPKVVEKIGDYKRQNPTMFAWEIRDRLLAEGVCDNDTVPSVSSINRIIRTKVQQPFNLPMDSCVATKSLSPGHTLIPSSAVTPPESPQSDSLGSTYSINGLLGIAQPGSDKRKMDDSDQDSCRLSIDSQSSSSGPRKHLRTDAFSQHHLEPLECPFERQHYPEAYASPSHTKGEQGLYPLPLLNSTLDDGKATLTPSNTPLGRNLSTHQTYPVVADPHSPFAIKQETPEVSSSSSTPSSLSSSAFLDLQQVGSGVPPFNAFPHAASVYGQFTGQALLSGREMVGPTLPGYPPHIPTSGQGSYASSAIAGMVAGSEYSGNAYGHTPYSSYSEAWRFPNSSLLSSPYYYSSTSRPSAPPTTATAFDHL

[9] = general cell-killing toxicity readout – plate reader, dry powder samples, cytotoxicity control for PAX8 inhibitor project, dose response (AID 743021); format: functional, cell-based
[10] = target: Luciferin 4-monooxygenase (Photinus pyralis, UniProt P08659); experiment: Counter Screen for Luciferase-based Assay Positives. [Related pubchem assays: 620, 618, 411 ]
Sequence of Luciferin 4-monooxygenase (P08659 whole entry): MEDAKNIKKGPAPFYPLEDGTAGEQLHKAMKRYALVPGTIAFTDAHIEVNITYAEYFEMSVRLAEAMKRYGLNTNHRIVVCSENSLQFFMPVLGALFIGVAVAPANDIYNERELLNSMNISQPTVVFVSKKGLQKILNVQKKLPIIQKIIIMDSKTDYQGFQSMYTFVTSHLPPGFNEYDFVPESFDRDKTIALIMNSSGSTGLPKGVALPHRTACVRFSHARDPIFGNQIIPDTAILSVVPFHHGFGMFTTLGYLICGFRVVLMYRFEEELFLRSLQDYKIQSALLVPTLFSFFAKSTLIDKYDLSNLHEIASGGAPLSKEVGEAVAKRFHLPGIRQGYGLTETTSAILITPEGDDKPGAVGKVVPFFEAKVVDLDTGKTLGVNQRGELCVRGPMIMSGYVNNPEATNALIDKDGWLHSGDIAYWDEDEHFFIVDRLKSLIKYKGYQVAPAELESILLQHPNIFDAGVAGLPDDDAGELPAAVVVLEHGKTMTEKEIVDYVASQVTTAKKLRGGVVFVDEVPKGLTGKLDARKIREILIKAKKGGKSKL

HT-1080 = experiment: HT1080 cell viability loss – fluorescence readout (AID 620); format: functional, cell-based; settings: Homo sapiens
[11] = target: Glyceraldehyde-3-phosphate dehydrogenase (Homo sapiens, UniProt P04406)
Sequence of Glyceraldehyde-3-phosphate dehydrogenase (P04406 whole entry): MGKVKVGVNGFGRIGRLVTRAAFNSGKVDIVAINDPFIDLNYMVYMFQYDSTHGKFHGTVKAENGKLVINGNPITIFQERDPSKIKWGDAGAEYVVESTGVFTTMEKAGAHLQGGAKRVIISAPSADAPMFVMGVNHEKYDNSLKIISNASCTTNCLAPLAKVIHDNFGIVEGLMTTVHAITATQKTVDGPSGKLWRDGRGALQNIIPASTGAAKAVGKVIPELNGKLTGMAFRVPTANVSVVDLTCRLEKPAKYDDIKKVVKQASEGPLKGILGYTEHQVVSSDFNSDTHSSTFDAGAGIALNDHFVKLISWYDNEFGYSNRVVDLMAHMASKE

[12] = target: Heat shock cognate 71 kDa protein (Homo sapiens, UniProt P11142); experiment: In Vitro Hsc70 Dose Response Fluorescence Polarization Assay. [Related pubchem assays: 1072 ]
Sequence of Heat shock cognate 71 kDa protein (P11142 whole entry): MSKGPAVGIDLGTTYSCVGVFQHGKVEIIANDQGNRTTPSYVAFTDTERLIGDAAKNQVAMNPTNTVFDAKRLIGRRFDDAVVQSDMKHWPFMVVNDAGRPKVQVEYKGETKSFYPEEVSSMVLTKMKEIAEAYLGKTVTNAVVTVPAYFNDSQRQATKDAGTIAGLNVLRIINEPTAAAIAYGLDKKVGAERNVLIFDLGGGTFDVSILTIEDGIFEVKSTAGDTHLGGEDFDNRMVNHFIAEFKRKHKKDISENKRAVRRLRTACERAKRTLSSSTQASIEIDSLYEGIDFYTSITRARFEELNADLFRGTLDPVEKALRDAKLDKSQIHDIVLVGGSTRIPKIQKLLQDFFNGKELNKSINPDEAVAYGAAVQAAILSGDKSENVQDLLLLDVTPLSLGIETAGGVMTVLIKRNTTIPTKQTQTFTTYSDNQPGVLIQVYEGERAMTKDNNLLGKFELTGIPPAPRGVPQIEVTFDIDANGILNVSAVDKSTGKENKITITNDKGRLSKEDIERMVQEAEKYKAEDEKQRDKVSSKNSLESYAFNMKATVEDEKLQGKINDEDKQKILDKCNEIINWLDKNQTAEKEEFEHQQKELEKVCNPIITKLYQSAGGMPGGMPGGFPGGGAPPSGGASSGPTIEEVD

[13] = target: Heat shock 70 kDa protein 1A (Homo sapiens, UniProt P0DMV8); experiment: inhibition of Hsp70 binding activity – biochemical, fluorescence polarization, SAR follow-up (AID 1072)
Sequence of Heat shock 70 kDa protein 1A (P0DMV8 whole entry): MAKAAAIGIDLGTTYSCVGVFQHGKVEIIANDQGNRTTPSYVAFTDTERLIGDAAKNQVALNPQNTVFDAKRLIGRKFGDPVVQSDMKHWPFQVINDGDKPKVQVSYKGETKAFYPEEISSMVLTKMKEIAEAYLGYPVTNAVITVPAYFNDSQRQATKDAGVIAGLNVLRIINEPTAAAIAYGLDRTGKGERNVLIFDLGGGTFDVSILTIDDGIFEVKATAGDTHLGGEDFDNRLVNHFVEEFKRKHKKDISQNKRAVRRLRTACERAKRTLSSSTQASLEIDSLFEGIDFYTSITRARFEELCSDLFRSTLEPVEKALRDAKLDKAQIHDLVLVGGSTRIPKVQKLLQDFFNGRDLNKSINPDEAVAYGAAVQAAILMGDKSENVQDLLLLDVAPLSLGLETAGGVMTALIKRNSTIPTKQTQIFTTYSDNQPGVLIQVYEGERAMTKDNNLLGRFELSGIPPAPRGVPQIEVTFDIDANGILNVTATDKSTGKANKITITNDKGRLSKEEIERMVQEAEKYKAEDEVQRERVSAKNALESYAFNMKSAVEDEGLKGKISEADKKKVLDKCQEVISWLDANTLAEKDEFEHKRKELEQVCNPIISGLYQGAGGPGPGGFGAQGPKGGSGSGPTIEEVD

Bcl-2-related protein A1 [14] = target: T2, Bcl-2-related protein A1 (Mus musculus, UniProt Q07440); experiment: small-molecule antagonists of Bfl-1/BH3 interaction – biochemical, TR-FRET, mouse Bfl-1, confirmation (AID 621);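 note: TR-FRET binding of GST-Bfl-1 to FITC-labelled Bid peptide via terbium antibody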
T2 sequence (Q07440 whole entry): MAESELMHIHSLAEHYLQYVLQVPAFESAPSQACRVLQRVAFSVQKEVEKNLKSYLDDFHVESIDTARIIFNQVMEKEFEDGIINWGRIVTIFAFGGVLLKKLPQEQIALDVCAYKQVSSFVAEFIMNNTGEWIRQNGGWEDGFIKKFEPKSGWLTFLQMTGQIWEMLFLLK

Bcl-2-related protein A1 [15] = target: T2, Bcl-2-related protein A1; experiment: Bfl-1 binding inhibitors, SAR follow-up, biochemical, fluorescence polarization (AID 1070)
Caspase-3 = target: T3, Caspase-3 (Homo sapiens, UniProt P42574); format: functional;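 note: Dose-response selectivity test against caspase-3 for candidate inhibitors of sentrin-specific proteases (SENPs)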
T3 sequence (P42574 whole entry): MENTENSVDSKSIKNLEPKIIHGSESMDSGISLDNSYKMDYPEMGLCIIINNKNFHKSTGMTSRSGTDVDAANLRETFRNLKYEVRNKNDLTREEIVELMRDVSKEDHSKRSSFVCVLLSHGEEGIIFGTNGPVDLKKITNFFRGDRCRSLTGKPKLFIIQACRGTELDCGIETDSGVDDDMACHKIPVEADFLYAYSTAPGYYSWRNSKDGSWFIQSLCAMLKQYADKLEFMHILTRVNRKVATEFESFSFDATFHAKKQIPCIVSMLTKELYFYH

[16] = target: T4, Sentrin-specific protease 7 (Homo sapiens, UniProt Q9BQF6); format: functional;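 note: Luminescence-based dose-response confirmation of ultra-high-throughput screening hits, measuring inhibition of SENP7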
T4 sequence (Q9BQF6 whole entry): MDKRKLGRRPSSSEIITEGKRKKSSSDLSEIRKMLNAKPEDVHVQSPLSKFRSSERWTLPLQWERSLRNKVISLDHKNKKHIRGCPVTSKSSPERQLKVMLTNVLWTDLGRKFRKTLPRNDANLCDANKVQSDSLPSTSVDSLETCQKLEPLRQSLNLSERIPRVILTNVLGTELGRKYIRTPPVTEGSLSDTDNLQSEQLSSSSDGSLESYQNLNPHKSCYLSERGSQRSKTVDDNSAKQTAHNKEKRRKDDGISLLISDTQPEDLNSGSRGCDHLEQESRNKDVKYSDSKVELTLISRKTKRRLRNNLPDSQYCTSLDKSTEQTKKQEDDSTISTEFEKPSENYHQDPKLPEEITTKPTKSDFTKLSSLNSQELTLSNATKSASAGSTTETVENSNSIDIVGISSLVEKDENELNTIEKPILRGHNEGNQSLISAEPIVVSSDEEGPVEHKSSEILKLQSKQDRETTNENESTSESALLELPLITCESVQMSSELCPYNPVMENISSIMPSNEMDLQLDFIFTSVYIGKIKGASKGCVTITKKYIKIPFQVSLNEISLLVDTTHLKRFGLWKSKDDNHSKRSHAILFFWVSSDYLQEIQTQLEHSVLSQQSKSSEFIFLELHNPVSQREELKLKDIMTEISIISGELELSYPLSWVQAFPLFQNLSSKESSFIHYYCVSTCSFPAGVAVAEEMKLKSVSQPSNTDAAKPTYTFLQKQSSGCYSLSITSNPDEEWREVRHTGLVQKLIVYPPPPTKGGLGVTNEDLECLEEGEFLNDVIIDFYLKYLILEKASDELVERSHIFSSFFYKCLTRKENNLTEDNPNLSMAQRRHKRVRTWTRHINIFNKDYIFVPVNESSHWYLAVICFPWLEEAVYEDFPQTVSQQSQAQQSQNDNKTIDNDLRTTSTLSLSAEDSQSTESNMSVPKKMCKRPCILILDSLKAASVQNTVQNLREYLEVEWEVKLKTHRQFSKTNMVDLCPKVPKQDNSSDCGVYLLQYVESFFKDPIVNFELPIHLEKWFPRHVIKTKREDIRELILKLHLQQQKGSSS

[17] = target: T5, Sentrin-specific protease 6 (Homo sapiens, UniProt Q9GZR1); format: functional;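 note: Luminescence-based dose-response confirmatory assay of SENP6 inhibition, following up an ultra-high-throughput screen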
T5 sequence (Q9GZR1 whole entry): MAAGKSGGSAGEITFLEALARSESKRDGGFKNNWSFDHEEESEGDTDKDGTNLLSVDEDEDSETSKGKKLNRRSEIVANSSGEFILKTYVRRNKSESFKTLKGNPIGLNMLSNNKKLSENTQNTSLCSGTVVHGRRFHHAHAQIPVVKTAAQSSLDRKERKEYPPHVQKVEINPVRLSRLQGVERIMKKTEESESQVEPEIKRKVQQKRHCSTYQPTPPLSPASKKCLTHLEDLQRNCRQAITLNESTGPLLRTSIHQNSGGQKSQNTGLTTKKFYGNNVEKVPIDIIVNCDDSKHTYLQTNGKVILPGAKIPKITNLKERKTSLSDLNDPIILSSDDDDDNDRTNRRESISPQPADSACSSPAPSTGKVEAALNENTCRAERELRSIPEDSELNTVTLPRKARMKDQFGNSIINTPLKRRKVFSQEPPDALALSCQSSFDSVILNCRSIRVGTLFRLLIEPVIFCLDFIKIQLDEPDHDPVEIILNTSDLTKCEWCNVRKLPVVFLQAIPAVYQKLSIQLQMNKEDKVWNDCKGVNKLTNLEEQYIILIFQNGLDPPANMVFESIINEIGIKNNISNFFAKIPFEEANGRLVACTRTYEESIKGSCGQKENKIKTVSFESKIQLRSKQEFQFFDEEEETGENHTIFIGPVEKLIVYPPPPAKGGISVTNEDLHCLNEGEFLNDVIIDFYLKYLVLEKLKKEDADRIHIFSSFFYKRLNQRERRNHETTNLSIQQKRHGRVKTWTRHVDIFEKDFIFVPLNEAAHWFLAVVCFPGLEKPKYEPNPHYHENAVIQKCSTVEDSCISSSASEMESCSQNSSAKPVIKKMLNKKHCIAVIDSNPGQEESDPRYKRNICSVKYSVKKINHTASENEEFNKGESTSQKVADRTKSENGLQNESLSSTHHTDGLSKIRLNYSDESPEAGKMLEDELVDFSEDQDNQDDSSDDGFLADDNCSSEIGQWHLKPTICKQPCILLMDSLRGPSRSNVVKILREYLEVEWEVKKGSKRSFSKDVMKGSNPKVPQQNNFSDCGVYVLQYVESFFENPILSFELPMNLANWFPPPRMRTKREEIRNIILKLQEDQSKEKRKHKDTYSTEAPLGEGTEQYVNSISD

[18] = target: T6, Sentrin-specific protease 8 (Homo sapiens, UniProt Q96LD8); format: functional;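 note: luminescence read-out of SENP8 inhibition, dose-response confirmation following an ultra-high-throughput screen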
T6 sequence (Q96LD8 whole entry): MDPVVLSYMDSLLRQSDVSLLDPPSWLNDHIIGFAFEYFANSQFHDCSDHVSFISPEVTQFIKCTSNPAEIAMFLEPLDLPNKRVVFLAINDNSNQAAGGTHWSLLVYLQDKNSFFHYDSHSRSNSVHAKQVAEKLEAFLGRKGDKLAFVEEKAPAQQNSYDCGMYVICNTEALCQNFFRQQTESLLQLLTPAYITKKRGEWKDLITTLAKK

[19] = target: T7, Fructose-bisphosphate aldolase (Mycobacterium tuberculosis, UniProt P9WQA3); experiment: Fluorescence-based biochemical high throughput dose response assay for inhibitors of the fructose-bisphosphate aldolase (FBA) of M. tuberculosis.; format: functional
T7 sequence (P9WQA3 whole entry): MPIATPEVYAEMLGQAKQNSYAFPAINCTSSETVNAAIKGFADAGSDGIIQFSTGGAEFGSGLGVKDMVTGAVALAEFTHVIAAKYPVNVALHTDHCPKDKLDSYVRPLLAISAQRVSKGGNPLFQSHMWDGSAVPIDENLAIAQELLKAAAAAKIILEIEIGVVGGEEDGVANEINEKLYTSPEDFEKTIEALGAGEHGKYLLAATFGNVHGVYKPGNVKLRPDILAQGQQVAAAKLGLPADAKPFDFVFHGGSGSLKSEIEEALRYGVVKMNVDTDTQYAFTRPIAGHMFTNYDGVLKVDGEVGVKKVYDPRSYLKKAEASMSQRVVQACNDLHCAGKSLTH

SMILES: COCC(=O)N(C)C[C@@H]1[C@H](c2ccc(-c3ccccc3)cc2)[C@@H](CO)N1C(C)=O
- AC50 [1]: 9.74 µM (active)

SMILES: Cc1ccccc1CN(c1ccc(C(=O)Nc2ccccc2C(=O)NCc2ccco2)cc1)S(C)(=O)=O
- IC50 [2]: > 69.5 µM (inactive)
- IC50 [3]: > 69.5 µM (inactive)

SMILES: CC(C)(C)OC(=O)NCc1ccc(CNC(=O)c2[nH]cnc2C(=O)N[C@@H](Cc2ccccc2)C(=O)OC(C)(C)C)cc1
- IC50 [2]: 9.77 µM (active)

SMILES: CC(C)(C)OC(=O)NCc1ccc(CNC(=O)c2nc[nH]c2C(=O)N[C@@H](Cc2ccccc2)C(=O)OC(C)(C)C)cc1
- IC50 [3]: > 69.5 µM (inactive)

SMILES: COc1ccc(C2C(=O)c3ccccc3C2=O)cc1OC
- IC50 (Prothrombin): > 50 µM (not active)

SMILES: CCCCN(C)CCNC(=O)c1nn(-c2ccc(OC)cc2)c(=O)c2c1c1ccccc1n2C
- EC50 [4]: < 0.1 µM (active)
- EC50 [5]: > 60 µM (not active)
- EC50 (cells): 0.44 µM (active)

SMILES: CC(=O)N(CCC1(c2ccc(C)cc2)CCOC(C(C)C)C1)Cc1ccco1 (stereo not drawn)
- EC50 [6]: > 50 µM (active)

SMILES: Cc1sc2nc(SCC(=O)c3ccc(O)c(O)c3)n(Cc3ccco3)c(=O)c2c1C
- IC50 [7]: > 69.5 µM (inactive)
- IC50 [8]: > 69.5 µM (inactive)

SMILES: COC(=O)C1=C(C)N(Cc2cccc(C(F)(F)F)c2)C(NCC2CC2)=NC1c1cccc(C(F)(F)F)c1 (stereo not drawn)
- AC50 (Paired box protein Pax-8): 17.2 µM (active)
- AC50 [9]: 20.8 µM (active)

SMILES: CCOc1ccc(CCN2C(=S)N([C@@H](Cc3ccc(O)cc3)CN3CCC[C@@H]3CN3C(=S)NC[C@@H]3CC(C)C)C[C@@H]2Cc2ccc(O)cc2)cc1
- AC50 (Paired box protein Pax-8): 8.84 µM (active)
- IC50 [2]: 12.4 µM (inactive)
- IC50 [3]: > 69.5 µM (inactive)

SMILES: CC(C)N(CCn1c(SCC(=O)N2CC(=O)Nc3ccccc32)nc2ccccc2c1=O)C(C)C
- EC50 [4]: < 0.1 µM (active)
- EC50 [5]: > 60 µM (not active)
- EC50 (cells): 0.061 µM (active)

SMILES: O=c1oc(-c2ccccc2[N+](=O)[O-])nc2ccccc12
- IC50 (Prothrombin): 0.116 µM (active)

SMILES: COc1nc(C)ccc1-c1noc(-c2ccco2)n1
- EC50 [10]: 1.78 µM (active)
- EC50 (HT-1080): > 50 µM (not active)

SMILES: CCc1nc2sc(C)c(C)c2c(=O)n1CCO
- AC50 [1]: 8.36 µM (active)

SMILES: COc1ccc(NC(=S)Nc2ccc3cn[nH]c3c2)cc1
- IC50 (Prothrombin): 5.6 µM (active)

SMILES: O=C1C(Cl)=C(N2CCN(CCOCCO)CC2)C(=O)N1c1ccc(Cl)c(Cl)c1
- IC50 [11]: > 100 µM (not active)
- IC50 [12]: > 100 µM (not active)
- IC50 [13]: > 100 µM (not active)
- IC50 (Bcl-2-related protein A1 [14]): 0.42 µM (active)
- IC50 (Bcl-2-related protein A1 [15]): 0.47 µM (active)

SMILES: CC(=O)N1C(=O)/C(=C2\SC(=S)N(NC(=O)c3ccc(O)cc3)C2=O)c2ccccc21
- IC50 (Caspase-3): 12.9 µM (active)
- IC50 [16]: 35.3 µM (active)
- IC50 [17]: 3.1 µM (active)
- IC50 [18]: 10.3 µM (active)
- IC50 [19]: 4.74 µM (active)

SMILES: Cc1nc(C)c(-c2ccc(SCc3ccccc3C)nn2)s1
- EC50 [6]: > 50 µM (active)

SMILES: Cc1cccc(Nc2nnc(SCC(=O)c3ccc(Br)s3)s2)c1C
- IC50 [7]: > 69.5 µM (inactive)
- IC50 [8]: > 69.5 µM (inactive)
